{"source": "patent US20220267753A1", "about": "“RATIONAL THERAPEUTIC TARGETING OF ONCOGENIC IMMUNE SIGNALING STATES IN MYELOID MALIGNANCIES VIA THE UBIQUITIN CONJUGATING ENZYME UBE2N” (CHILDREN'S HOSPITAL MEDICAL CENTER, priority 2019, published 2022)", "key": {"THP-1 cells": {"test_system": "THP-1 cells", "test": "Colony formation assay of THP-1 cells with shControl or shUBE2N", "format": "cell-based, human", "from_the_text": "For knockdown studies, UBE2N shRNA template oligonucleotides from the TRC shRNA library cloned into the pLKO.1 TRC cloning vector (Addgene: #10878) and pLKO.1 TRC cloning vector (Table 3). The puromycin gene in pLKO.1 was replaced with GFP. pLKO.1 TRC control was used as non-silencing control (Addgene: #10879). For production of lentiviral particles, lentiviral shRNA expression constructs were transfected together with packaging vectors into 293T producer cells using TransIT transfection reagent (Mirus, MIR 2306), supernatants were harvested after 48 and 72 hours, and concentrated by ultracentrifugation. […] UBE2N knockdown efficiency was determined by quantitative real time PCR (qRT-PCR) and western blot and quantified as described elsewhere. […] Levels of overexpression of UBE2N were determined by western blot.\nIn order to determine viability after UBE2N knockdown or inhibition, 1×10^6 AML cells were washed with PBS and mixed with pre-diluted APC-conjugated Annexin V (BD Pharmigen, Franklin Lakes, N.J.) and Propidium iodide (PI) (Invitrogen ThermoFisher 00-6990-42, Waltham, Mass.). […] Colonies were scored after 7 days in culture. […] Colonies were scored at 7 days. […] Colonies were manually scored at 14-16 days after plating or counted with STEMVision (StemCell Technologies, Vancouver, CA)."}, "MOLM-13 cells": {"test_system": "MOLM-13 cells", "test": "MOLM-13 xenograft in NSG mice", "format": "in vivo", "details": "2 mg/kg i.p.", "protocol": "Lentivirally-infected MOLM-13 cells or HL-60 cells (1.9×10^4 cells per recipient) expressing a non-silencing control shRNA or UBE2N specific shRNAs were tail vein transplanted into sublethally irradiated NOD-scid IL2Rγ^−/− (NSG) mice (250 rads whole body irradiation). Moribund mice were sacrificed and assessed for leukemic burden measurements. BM and spleen cells were analyzed for GFP expression by flow cytometry using a BD FACS Canto System (BD Biosciences, San Jose, Calif.). Bone marrow aspirates were taken 2 weeks after transplantation for smears or to assess engraftment by flow cytometry. For survival analysis after UBE2N inhibitors treatment, NSG mice (n=10/group) were injected with 1×10^4 MOLM-13 cells and treated with 4 doses of 2 mg/kg/d of UC-764865, or vehicle control (0.2% tween 20 in water) for 2 weeks (8 doses total). Time of death was recorded, and Kaplan Meier survival analysis was performed using GraphPad Prism version 7.00 for Mac (GraphPad Software, La Jolla Calif. USA). Engraftment was assessed in bone marrow (BM) at one week after transplantation by flow cytometric determination of human CD33 (BDPharmingen 555450, Franklin Lakes, N.J.), human CD45 and/or human CD15. Briefly, mice were euthanized with carbon dioxide following the AVMA Guidelines for the Euthanasia of Animals and BM cells were immediately extracted by breaking the femurs with a mortar and pestle. Red blood cells were lysed with RBC lysis buffer (555899 BD Biosciences) and washed twice with Phosphate-Buffered Saline (PBS) (Dulbecco's 45000-446 (PK)), 2% Fetal Bovine Serum (FBS). 1×10^6 cells were stained with human CD33 (BDPharmighen 555450), murine CD45 (BDPharmighen 557659) by incubating in PBS, 0.2% FBS for 30 minutes on ice in the dark. After staining the cells were washed once with PBS and resuspended in incubation buffer with propidium iodine. Cells were analyzed using a BD FACS Canto System (BD Biosciences, San Jose, Calif.). Alternatively, 1×10^4 MOLM-13 cells were xenotransplanted in NSG mice without conditioning (n=10/group). Treatment with UBE2N inhibitors was started one day after transplant for […] (5 days dosing of 2 mg/kg/d, resting 2 days, 2 days dosing of 2 mg/kg/d) by intraperitoneal injections (IP). All the mice were sacrificed at day 10 post transplantation and engraftment of MOLM-13 cells was analyzed in spleen and BM by staining for human CD15 (BDPharmighen 551376) as described above. For patient-derived xenografts (PDX), 1×106 to 6×10^6 cells were transplanted via tail vain in NSGS mice conditioned with busulfan (final dose of 30 mg/kg) 24 hours prior to transplantation. Treatment with UC-764865 was started 3 days after transplantation with 5 weekly doses of 25 mg/kg UC-764865 or vehicle control (methyl-β-cyclodextrin, 50 mg/ml) via LP during a period of 2-6 weeks. BM aspirates were performed once a week and determination of engraftment was performed as described above."}}}
{"compound": "CCc1ccc(C(=O)C=CSc2nc3ccc(C)cc3[nH]2)cc1", "note": "[UC-764864, 1-(4-ethylphenyl)-3-[(6-methyl-1H-benzimidazol-2-yl)sulfanyl]prop-2-en-1-one]", "values": [{"measurement": "leukemic colony formation of THP-1 cells following knockdown of UBE2N", "setting": "THP-1 cells", "result": "did not significantly further suppress"}, {"measurement": "leukemic progenitor function (colony formation) of THP-1-shControl cells", "setting": "THP-1 cells", "result": "significantly repressed"}]}
{"compound": "COc1ccc(C(=O)C=CSc2nc3ccc(C)cc3[nH]2)cc1", "note": "[UC-764865, 1-(4-methoxyphenyl)-3-[(6-methyl-1H-benzimidazol-2-yl)sulfanyl]prop-2-en-1-one]", "values": [{"measurement": "onset of leukemia", "setting": "MOLM-13 cells; 4 doses/week for 2 weeks, vehicle 8 days", "result": 18, "unit": "days"}, {"measurement": "overall median survival", "setting": "MOLM-13 cells; 4 doses/week for 2 weeks, vehicle 17 days, P<0.0001", "result": 21, "unit": "days"}, {"measurement": "reduction of leukemic burden (percent of human CD15+ cells) in BM", "setting": "MOLM-13 cells; 7 doses, day 10 post transplantation, P=0.03", "result": 40, "unit": "%"}, {"measurement": "reduction of leukemic burden (percent of human CD15+ cells) in spleen", "setting": "MOLM-13 cells; 7 doses, day 10 post transplantation, P=0.3", "result": 70, "unit": "%"}, {"measurement": "spleen weight at time of death", "setting": "MOLM-13 cells; vehicle 63±29 mg, P=0.0001", "result": "18 ± 6", "unit": "mg"}, {"measurement": "reduction of splenomegaly at time of death", "setting": "MOLM-13 cells; vs vehicle", "result": 80, "unit": "%"}]}
